Target: T1, recombinant human (rh) KLK5 (Homo sapiens, UniProt Q9Y337)
T1 construct: purchased R&D Systems 1108-SE
T1 sequence (Q9Y337 23-293): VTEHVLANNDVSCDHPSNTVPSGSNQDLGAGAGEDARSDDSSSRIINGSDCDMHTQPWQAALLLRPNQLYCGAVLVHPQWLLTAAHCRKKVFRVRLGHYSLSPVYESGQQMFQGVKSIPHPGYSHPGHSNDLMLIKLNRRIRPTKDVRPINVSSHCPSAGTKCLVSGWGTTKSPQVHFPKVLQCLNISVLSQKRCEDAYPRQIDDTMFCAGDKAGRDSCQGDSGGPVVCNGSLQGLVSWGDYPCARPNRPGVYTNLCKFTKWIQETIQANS
Test: Enzymatic activity of KLK5 (fluorogenic peptide substrate Boc-V-P-R-AMC)
Type: biochemical
Conditions: FIG. 1; for KLK5 activity compared to that of salicylic acid: rhKLK5, rate of enzyme activity relative to salicylic acid
Description: In the stratum corneum, skin's outermost layer, cell-to-cell cohesion depends primarily on proteins known as the corneodesmosomes. During skin remodeling and renewal dead cells are shed from the skin surface by the action of native proteases that break down the corneodesmosomes. […] Hypothetically, up-regulation of the activities of these proteases using different active candidates could be utilized to increase the rate of shedding of dead skin, thus providing a natural means for skin exfoliation. To this end, the enzymatic activity of a member of the KLK family, recombinant human (rh) KLK5, was monitored following pre-incubation with actives and measuring the rate of peptide bond cleavage of a synthetic substrate.
Enzymatic activity of KLK5 was measured by incubating recombinant human (rh) KLK5 protease (R&D Systems, Cat No. 1108-SE) with a specific fluorogenic peptide substrate Boc-V-P-R-AMC (R& D Systems, Cat No. ES011). The substrate is conjugated to a quenched fluorescent group. Upon cleavage of the adjacent peptide bond, the fluorescent signal is released, resulting in a measureable emission at […] when excited at 340 nm wavelength. Increase in fluorescence reading indicates an increase in rhKLK5 activity. The test compounds were reacted with recombinant rhKLK5 protease for 60 seconds followed by addition of Boc-V-P-R-AMC Fluorogenic Peptide Substrate. After 60 seconds of incubation, fluorescence was measured at 340 nm (Excitation wavelength) and 485 nm (Emission wavelength) every 1 minute for 7 minutes. Rate (kinetics) of enzyme activity was calculated as follows: Rate of enzyme activity=Change of fluorescent reading (after background correction)/Change of reaction time (min). Percent change of activity due to a test compound was calculated by comparing rate of enzyme activity in the presence of the test compound to that of a control without the test compound and statistical significance was calculated using a t-test. Additionally, the rate of activity of the compounds was compared to that of salicylic acid.

Row | percentage of KLK5 activity relative to salicylic acid (salicylic acid as the benchmark) | SMILES | KLK5 activity compared to that of salicylic acid
1 |  | O=C(O)c1ccc2ccccc2c1O [1-hydroxy-2-napthoic acid] | substantially less KLK5 activity than salicylic acid
2 |  | O=C(O)c1c(O)ccc2ccccc12 [2-hydroxy-1-napthoic acid] | substantially less KLK5 activity than salicylic acid
3 |  | O=C(O)c1cc2ccccc2cc1O [3-hydroxy-2-napthoic acid] | potent stimulator of KLK5, as it is increased beyond salicylic acid
4 | 100% | O=C(O)c1ccccc1O [salicylic acid] | 

Source: patent US20150182434A1, “COSMETIC USE OF NAPTHOIC ACID DERIVATIVES” (Avon Products, Inc., priority 2013, published 2015)
